# Experimental data: US20060069132A1, “Azolecarboxamide herbicides” (priority 2004, published 2006)
# Columns and labels:
# barnyardgrass [1] = assay: Test B pre-/postemergence herbicide test; format: in vivo, Echinochloa crus-galli; conditions: for Barnyardgrass plant response rating: Postemergence, scale 0 (no effect) to 100 (complete control)
# In short: (§1)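 Evaluation is visual, comparing treated with control plants on a scale where 0 means no effect and 100 means full control. Treatments were preemergence, or postemergence on seedlings 2–18 cm tall, and held 13–15 days in the greenhouse.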
# Surinam grass = assay: Test B pre-/postemergence herbicide test; format: in vivo, Urochloa decumbens
# In short: (§2)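 Formulation: non-phytotoxic solvent mix with surfactant. Timing: preemergence on seed and postemergence on 2–18 cm plants, applied concurrently. Readout after 13–15 d greenhouse: visual 0–100 control rating against controls.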
# cocklebur = assay: Test B pre-/postemergence herbicide test; format: in vivo, Xanthium strumarium
# In short: as §1
# corn = assay: Test B pre-/postemergence herbicide test; format: in vivo, Zea mays
# In short: as §2
# large crabgrass = assay: Test B pre-/postemergence herbicide test; format: in vivo, Digitaria sanguinalis
# In short: as §2
# giant foxtail = assay: Test B pre-/postemergence herbicide test; format: in vivo, Setaria faberi
# In short: as §2
# morningglory = assay: Test B pre-/postemergence herbicide test; format: in vivo, Ipomoea coccinea
# In short: as §1
# pigweed = assay: Test B pre-/postemergence herbicide test; format: in vivo, Amaranthus retroflexus
# In short: as §2
# velvetleaf = assay: Test B pre-/postemergence herbicide test; format: in vivo, Abutilon theophrasti
# In short: as §2
# blackgrass = assay: Test B postemergence herbicide test; format: in vivo, Alopecurus myosuroides
# In short: (§3)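 Each value is a visual 0–100 response rating taken against controls 13 to 15 days after treatment in the greenhouse. Plants received formulated chemical postemergence at the 1- to 4-leaf stage or, in flooded paddy, at the 2-leaf stage.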
# wheat = assay: Test B postemergence herbicide test; format: in vivo, Triticum aestivum; parameters: key to Wheat plant response rating: 0 = no effect, 100 = complete control
# In short: as §3
# wild oat = assay: Test B postemergence herbicide test; format: in vivo, Avena fatua
# In short: as §3
# rice = assay: Test B flooded paddy test; format: in vivo, Oryza sativa; conditions: 1000 g ai/ha, scale 0 to 100 (0 no effect, 100 complete control)
# In short: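 Scale 0–100: zero equals no visible effect, 100 complete control, judged by eye relative to controls. Timing: 13 to 15 days in greenhouse post-treatment. Growth stage at spraying: two leaves (paddy) or one to four leaves, 2–18 cm (postemergence).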
# [2] = test system: small flower umbrella sedge; assay: Test B flooded paddy test; format: in vivo, Cyperus difformis; conditions: 1000 g ai/ha, scale 0 to 100 (0 no effect, 100 complete control)
# In short: as §3
# ducksalad = assay: Test B flooded paddy test; format: in vivo, Heteranthera limosa; conditions: 1000 g ai/ha, scale 0 to 100 (0 no effect, 100 complete control)
# In short: as §3
# barnyardgrass [3] = assay: Test B flooded paddy test; format: in vivo, Echinochloa crus-galli; conditions: 1000 g ai/ha, scale 0 to 100 (0 no effect, 100 complete control)
# In short: as §3
# [4] = 125 g ai/ha, 0 is no effect, 100 is complete control, preemergence
# [5] = Postemergence, 500 g ai/ha, scale 0 (no effect) to 100 (complete control)
# [6] = postemergence, 125 g ai/ha, scale 0 to 100
smiles,measurement,setting,value
C=CCNC(=O)c1cccc(NC(=O)c2nn(C(C)(C)C)nc2CC)c1 [Compound 414],"Plant response rating (0 to 100 scale), Barnyardgrass",barnyardgrass [1]; [4],90
same,Barnyardgrass plant response rating,barnyardgrass [1]; 125 g ai/ha,30
same,Barnyardgrass plant response rating,barnyardgrass [1]; 500 g ai/ha,30
same,"Plant response rating (0 to 100 scale), Surinam Grass",Surinam grass; [4],90
same,Surinam Grass plant response rating,Surinam grass; [5],60
same,Surinam Grass plant response rating,Surinam grass; [6],20
same,"Plant response rating (0 to 100 scale), Cocklebur",cocklebur; [4],20
same,Cocklebur plant response rating,cocklebur; [5],70
same,Cocklebur plant response rating,cocklebur; [6],60
same,"Plant response rating (0 to 100 scale), Corn",corn; [4],70
same,Corn plant response rating,corn; [5],40
same,Corn plant response rating,corn; [6],30
same,"Plant response rating (0 to 100 scale), Crabgrass, Large",large crabgrass; [4],100
same,"Crabgrass, Large plant response rating",large crabgrass; [5],70
same,"Crabgrass, Large plant response rating",large crabgrass; [6],30
same,"Plant response rating (0 to 100 scale), Foxtail, Giant",giant foxtail; [4],90
same,"Foxtail, Giant plant response rating",giant foxtail; [5],40
same,"Foxtail, Giant plant response rating",giant foxtail; [6],30
same,"Plant response rating (0 to 100 scale), Morningglory",morningglory; [4],10
same,Morningglory plant response rating,morningglory; [5],70
same,Morningglory plant response rating,morningglory; [6],20
same,"Plant response rating (0 to 100 scale), Pigweed",pigweed; [4],100
same,Pigweed plant response rating,pigweed; [5],100
same,Pigweed plant response rating,pigweed; [6],90
same,"Plant response rating (0 to 100 scale), Velvetleaf",velvetleaf; [4],70
same,Velvetleaf plant response rating,velvetleaf; [5],70
same,Velvetleaf plant response rating,velvetleaf; [6],50
same,Blackgrass plant response rating,blackgrass; [5],50
same,Blackgrass plant response rating,blackgrass; [6],40
same,Wheat plant response rating,"wheat; 500 g ai/ha, scale 0 to 100, 0 no effect, 100 complete control, preemergence",100
same,Wheat plant response rating,wheat; [5],20
same,Wheat plant response rating,wheat; [6],10
same,"Oat, Wild plant response rating",wild oat; [5],40
same,"Oat, Wild plant response rating",wild oat; [6],30
same,Rice plant response rating,rice,80
same,"Sedge, Umbrella plant response rating",[2],90
same,Ducksalad plant response rating,ducksalad,90
same,Barnyardgrass plant response rating,barnyardgrass [3],80
